Assay results published in BindingDB's records for PubMed 2795135 (Stanford University, 1989).
“And” between values parts separate entries of the source, which are not always exact repeats. Equal entries are not always repeated.

Columns and labels:
[1] = molecular target: 5-hydroxytryptamine receptor 2A (Rattus norvegicus, UniProt P14842)
[2] = molecular target: 5-hydroxytryptamine receptor 2B (Bos taurus, UniProt Q8MI09)
Sequence of 5-hydroxytryptamine receptor 2B (Q8MI09 whole entry): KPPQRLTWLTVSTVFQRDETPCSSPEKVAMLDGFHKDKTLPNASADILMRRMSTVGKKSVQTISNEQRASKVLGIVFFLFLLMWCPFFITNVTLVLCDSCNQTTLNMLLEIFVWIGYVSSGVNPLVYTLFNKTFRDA

Sequence of 5-hydroxytryptamine receptor 2A (P14842 whole entry): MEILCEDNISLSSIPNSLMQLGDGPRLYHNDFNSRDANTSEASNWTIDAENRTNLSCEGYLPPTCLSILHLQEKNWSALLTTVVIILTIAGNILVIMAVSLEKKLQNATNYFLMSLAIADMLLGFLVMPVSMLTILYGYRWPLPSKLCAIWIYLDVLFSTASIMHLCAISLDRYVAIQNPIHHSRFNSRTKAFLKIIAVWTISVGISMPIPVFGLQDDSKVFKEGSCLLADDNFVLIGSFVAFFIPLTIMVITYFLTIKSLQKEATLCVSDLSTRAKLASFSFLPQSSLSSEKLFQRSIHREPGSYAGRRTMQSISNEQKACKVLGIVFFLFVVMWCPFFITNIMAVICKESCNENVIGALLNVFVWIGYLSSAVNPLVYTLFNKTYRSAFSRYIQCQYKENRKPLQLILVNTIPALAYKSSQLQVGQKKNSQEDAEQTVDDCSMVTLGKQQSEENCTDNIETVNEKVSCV

| Structure (SMILES) | Ki [1] | Ki [2] |
| --- | --- | --- |
| CCCN(CCC)C1CCc2cccc(O)c2C1 (stereo not drawn) | 700 nM | 5400 nM |
| CN1C2CCC1CC(OC(=O)c1c[nH]c3ccccc13)C2 (stereo not drawn) | > 10000 nM | 2600 nM |
| CCc1cc(OC)c(CC(C)N)cc1OC (stereo not drawn) |  | 80 nM |
| NCCc1c[nH]c2ccccc12 [1H-indole-3-ethanamine] | 11 nM | 1300 nM |
| CN(C)CCc1c[nH]c2ccccc12 [2-(1H-indol-3-yl)-N,N-dimethylethanamine] | 42 nM | 550 nM |
| c1ccc2nc(N3CCNCC3)ccc2c1 [2-Piperazin-1-yl-quinoline (Quipazine)] | 5 nM | 460 nM |
| COc1cc(CCN)cc(OC)c1OC [3,4,5-trimethoxyphenylethylamine] | 150 nM | > 10000 nM |
| COc1ccc2[nH]cc(CCN(C)C)c2c1 [3-(2-DIMETHYLAMINOETHYL)-5-METHOXYINDOLE] | 14 nM | 1300 nM |
| O=C(c1ccc(F)cc1)C1CCN(CCn2c(=O)[nH]c3ccccc3c2=O)CC1 [3-(2-{4-[(4-fluorophenyl)carbonyl]piperidin-1-yl}ethyl)-1,2,3,4-tetrahydroquinazoline-2,4-dione] |  | 2.4 nM |
| CN(C)CCc1c[nH]c2cccc(O)c12 [4-hydroxy-N,N-dimethyltryptamine] | 12 nM | 450 nM |
| COc1ccc2[nH]cc(C3=CCNCC3)c2c1 [5-Methoxy-3-(1,2,3,6-tetrahydro-pyridin-4-yl)-1H-indole(RU-24969)] |  | 1200 nM |
| CCN(CC)C(=O)[C@@H]1C=C2c3cccc4[nH]cc(c34)C[C@H]2N(C)C1 [(4R,7R)-N,N-diethyl-6-methyl-6,11-diazatetracyclo[7.6.1.0^{2,7}.0^{12,16}]hexadeca-1(16),2,9,12,14-pentaene-4-carboxamide] |  | 11 nM |
| COc1cc(CC(C)N)c(OC)cc1C (stereo not drawn) [(+/-)2-(2,5-Dimethoxy-4-methyl-phenyl)-1-methyl-ethylamine] | 4.8 nM | 400 nM |
| CN(C)CCCSc1ccccc1NC(=O)/C=C/c1ccccc1 [CINANSERIN] | 7 nM | 5 nM |
| CN1C[C@@H](NS(=O)(=O)N(C)C)C[C@@H]2c3cccc4c3c(cn4C)C[C@H]21 [MESULERGINE] |  | 8 nM |
| CN(C)CCCN1c2ccccc2Sc2ccc(Cl)cc21 [[3-(2-Chloro-phenothiazin-10-yl)-propyl]-dimethyl-amine(Chlorpromazine)] |  | 6 nM |
| NCCc1c[nH]c2ccc(C(N)=O)cc12 [[3H]-5-carboxamidotryptamine] |  | > 10000 nM |
| COc1cc(CC(C)N)c(OC)cc1I (stereo not drawn) [[125I]2,5-dimethoxy-4-iodoamphetamine] | 0.89 nM and 0.53 nM | 100 nM and 55 nM |
| Clc1cccc(N2CCNCC2)c1 [mCPP] | 21 nM | 960 nM |
| CN(C)CCc1c[nH]c2cccc(OP(=O)(O)O)c12 [psilocybin] | 13 nM | 600 nM |
